{
  "source": "patent US20260345584A1",
  "about": "“METHODS AND PHARMACEUTICAL COMPOSITIONS FOR TREATING CHEMOTHERAPY-INDUCED PERIPHERAL NEUROPATHY WITH EG5 INHIBITORS” (UNIVERSITY OF MIAMI, priority 2023, published 2026)",
  "key": {"dfMTs in keratinocytes": {"system": "dfMTs in keratinocytes", "test": "dfMT fascicle width", "format": "in vivo, zebrafish", "conditions": "96 hr", "protocol": "The stock solution was divided into 20-30 μl aliquots and stored at −20 °C until use (maximal 6 months). Immediately prior to use, paclitaxel was diluted in Ringer's solution and added to dechorionated larval zebrafish. The larval fish were placed individually or in small groups into wells of a 12-well plate containing the treatment solutions. The control group was 0.05% DMSO. Plates were incubated at 28.5 °C and protected from light. Treatment lengths are indicated in the Drawings, Description of the Drawings, and Examples where appropriate. […] EMD534085, Eg5 inhibitor (MedChemExpress, Cat. No. HY-15000) was diluted in 100% DMSO to make a 10 mM stock solution and stored at −20 °C. […] The solutions were exchanged every 48 hr.\nLarval fish were transferred into […] glass vials and fixed in 4% paraformaldehyde (PFA)/1× Phosphate-buffered saline (PBS) for 1.5 hr at room temperature, with gentle rocking. Following a 5-minute incubation in 1×PBS+0.1% Tween-20 (PBST), zebrafish were permeabilized in 1×PBS+0.1% Triton X-100 for 10-30 min. Larval fish were transferred into 2 ml reaction tubes and incubated in blocking buffer (1×PBST+5% BSA) for 30 min at room temperature, with rocking. […]\ndfMT thicknesses (defined as the mean width of a given dfMT) was manually measured at high magnification using the Slice mode in Imaris and the Line tool for measuring the distance between two points. […]"}, "suprabasal keratinocytes": {"system": "suprabasal keratinocytes", "test": "dfMT formation in mouse epidermis", "format": "in vivo", "conditions": "single injection 20 mg/kg", "protocol": "The mice in each cage were randomly allocated to different treatment groups. Food and water were available ad libitum and experiments were performed during the light cycle (7:00 am to 7:00 pm). Animals were euthanized via CO2 asphyxiation, followed by cervical dislocation. […] The animal's husbandry conformed with established NIH and Institutional Animal Care and Use Committee (IACUC) approved protocols.\nPaws and back skin were collected at predetermined time points, placed in 10% formalin, and stored overnight at 4 °C. Samples were embedded in paraffin and sectioned at 7 μm, deparaffinized, washed with PBS, and incubated at room temperature for 5 min in 0.1% Triton X-100 in PBS and then blocked for 30 min (5% BSA). Sections were incubated with primary antibody diluted in blocking solution, overnight at 4 °C in a humidity chamber. Following PBS washes, sections were incubated for 1 h at room temperature with a secondary antibody. Tissues were mounted and assessed for staining. Antibodies used were against detyrosinated tubulin Millipore AB3201, p-KIF11 Invitrogen PA5-38647, alpha-tubulin Proteintech 66031-1-Ig, mouse Alexa Fluor 488 Invitrogen A21202, and rabbit Alexa flour 546 Invitrogen A10040. DAPI was used for nuclei counterstaining. […]"}, "[1]": {"system": "HyPer oxidation in keratinocytes", "test": "HyPer imaging of H2O2 production upon caudal fin stretch", "format": "in vivo, zebrafish", "conditions": "wildtype, 3 hr paclitaxel", "protocol": "HyPer fluorescence was measured in the oxidized (505 nm) and unoxidized (420 nm) channels by using the region of interest (ROI) function in ZEN Black (Zeiss) whereby ROIs were selected inside highly magnified mitochondria (HyPer-mito), cytoplasm (HyPer-cyto) or the plasma membrane (HyPer-CAAX). The data was exported, and ratios determined in Excel. H2O2 measurements in zebrafish transiently injected with tp63:Hyper were manually performed by placing spot objects in Imaris 9.5.1 onto individual cells such that the spots extended to the lateral edges. Fluorescence intensities were measured inside the spots and 505 nm/420 nm ratios were subsequently calculated.\nThe extent of stretch that was induced in wildtype transgenic Tg(tp63:GFP-CAAX) (Lisse et al., 2016, Proceedings of the National Academy of Sciences of the United States of America 113: E2189-2198) fish in which keratinocyte plasma membranes are fluorescently labelled was characterized.\nTo further investigate whether paclitaxel in combination with stretch alters ROS formation, HyPer imaging was performed."}},
  "data": [
    {"smiles": "CC(=O)O[C@H]1C(=O)[C@@]2(C)[C@H]([C@H](OC(=O)c3ccccc3)[C@]3(O)C[C@H](OC(=O)[C@H](O)[C@@H](NC(=O)c4ccccc4)c4ccccc4)C(C)=C1C3(C)C)[C@]1(OC(C)=O)CO[C@@H]1C[C@@H]2O", "note": "[paclitaxel]", "values": [
      {"measurement": "fascicle width of dMTs", "setting": "dfMTs in keratinocytes; 100 nM paclitaxel", "result": "6.0±0.49", "unit": "μm"},
      {"measurement": "fascicle width of dMTs", "setting": "dfMTs in keratinocytes; 22 μM paclitaxel", "result": "3.4±0.17", "unit": "μm"},
      {"measurement": "dfMT formation in mouse epidermis", "setting": "suprabasal keratinocytes", "result": "resulted in dfMT formation in a subset of suprabasal keratinocytes"},
      {"measurement": "time of peak HyPer oxidation post-stretch", "setting": "[1]", "result": "10 to 20", "unit": "min"}
    ]}
  ]
}
